Test results from PubChem BioAssay (NCI).
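Test compounds were applied to cells in 96-well plates for 48 hours at 5 doses. GI50 = concentration required for 50% inhibition of growth. TGI marks complete inhibition of growth.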

Tests used:
Assay in all cases: growth of human tumour cells (NCI), 48 h
IGROV1 ovarian = system: IGROV1 ovarian
OVCAR-4 ovarian = system: OVCAR-4 ovarian
SK-OV-3 ovarian = system: SK-OV-3 ovarian
SK-MEL-5 melanoma = system: SK-MEL-5 melanoma
RPMI-8226 leukemia = system: RPMI-8226 leukemia
MDA-MB-435 = system: MDA-MB-435
HCC-2998 colon = system: HCC-2998 colon
HCT-116 colon = system: HCT-116 colon
HL-60(TB) leukemia = system: HL-60(TB) leukemia
786-0 renal = system: 786-0 renal
SW-620 colon = system: SW-620 colon
RXF 393 renal = system: RXF 393 renal
SNB-75 CNS = system: SNB-75 CNS
HOP-92 NSCLC = system: HOP-92 NSCLC
HS 578T breast = system: HS 578T breast
M14 melanoma = system: M14 melanoma
SK-MEL-28 melanoma = system: SK-MEL-28 melanoma
SF-539 CNS = system: SF-539 CNS
NCI/ADR-RES ovarian = system: NCI/ADR-RES ovarian
NCI-H460 lung = system: NCI-H460 lung
CAKI-1 renal = system: CAKI-1 renal
COLO 205 colon = system: COLO 205 colon
TK-10 renal = system: TK-10 renal
SK-MEL-2 melanoma = system: SK-MEL-2 melanoma
U251 CNS = system: U251 CNS
MDA-MB-231 breast = system: MDA-MB-231 breast
NCI-H522 lung = system: NCI-H522 lung
SR leukemia = system: SR leukemia
CCRF-CEM leukemia = system: CCRF-CEM leukemia
LOX IMVI melanoma = system: LOX IMVI melanoma
SN12C renal = system: SN12C renal
MOLT-4 leukemia = system: MOLT-4 leukemia
BT-549 breast = system: BT-549 breast
SF-295 CNS = system: SF-295 CNS
A498 renal = system: A498 renal
NCI-H226 lung = system: NCI-H226 lung
SNB-19 CNS = system: SNB-19 CNS
HOP-62 NSCLC = system: HOP-62 NSCLC
EKVX NSCLC = system: EKVX NSCLC
UACC-62 melanoma = system: UACC-62 melanoma
UO-31 renal = system: UO-31 renal
T-47D breast = system: T-47D breast
HCT-15 colon = system: HCT-15 colon
OVCAR-8 ovarian = system: OVCAR-8 ovarian
KM12 colon = system: KM12 colon
ACHN renal = system: ACHN renal
SF-268 CNS = system: SF-268 CNS
K-562 leukemia = system: K-562 leukemia
MALME-3M melanoma = system: MALME-3M melanoma
A549 NSCLC = system: A549 NSCLC
DU-145 prostate = system: DU-145 prostate
MCF7 breast = system: MCF7 breast
OVCAR-3 ovarian = system: OVCAR-3 ovarian
PC-3 prostate = system: PC-3 prostate
HT29 colon = system: HT29 colon
UACC-257 melanoma = system: UACC-257 melanoma
NCI-H23 lung = system: NCI-H23 lung
OVCAR-5 ovarian = system: OVCAR-5 ovarian

Structure (SMILES): COc1ccc(-c2nn(-c3cccc(Cl)c3)cc2-c2cc(-c3cccs3)[nH]c(=S)n2)cc1
- GI50 (IGROV1 ovarian): 3.61 µM
- TGI (IGROV1 ovarian): 15.3 µM
- GI50 (OVCAR-4 ovarian): 3.47 µM
- TGI (OVCAR-4 ovarian): > 100 µM
- GI50 (SK-OV-3 ovarian): 5.91 µM
- TGI (SK-OV-3 ovarian): 36.8 µM
- GI50 (SK-MEL-5 melanoma): 2.93 µM
- TGI (SK-MEL-5 melanoma): 10.9 µM
- GI50 (RPMI-8226 leukemia): 2.42 µM
- TGI (RPMI-8226 leukemia): 10.9 µM
- GI50 (MDA-MB-435): 3.13 µM
- TGI (MDA-MB-435): 19 µM
- GI50 (HCC-2998 colon): 4.03 µM
- TGI (HCC-2998 colon): 16.4 µM
- GI50 (HCT-116 colon): 2.38 µM
- TGI (HCT-116 colon): 11.2 µM
- GI50 (HL-60(TB) leukemia): 3.49 µM
- TGI (HL-60(TB) leukemia): 13.2 µM
- GI50 (786-0 renal): 4.18 µM
- TGI (786-0 renal): > 100 µM
- GI50 (SW-620 colon): 3.79 µM
- TGI (SW-620 colon): 22.3 µM
- GI50 (RXF 393 renal): 3.76 µM
- TGI (RXF 393 renal): 19.5 µM
- GI50 (SNB-75 CNS): 3.49 µM
- TGI (SNB-75 CNS): 25.6 µM
- GI50 (HOP-92 NSCLC): 2.2 µM
- TGI (HOP-92 NSCLC): 10.8 µM
- GI50 (HS 578T breast): 4.26 µM
- TGI (HS 578T breast): > 100 µM
- GI50 (M14 melanoma): 2.81 µM
- TGI (M14 melanoma): 14 µM
- GI50 (SK-MEL-28 melanoma): 3.93 µM
- TGI (SK-MEL-28 melanoma): 15.7 µM
- GI50 (SF-539 CNS): 4.7 µM
- TGI (SF-539 CNS): 19.7 µM
- GI50 (NCI/ADR-RES ovarian): 4.77 µM
- TGI (NCI/ADR-RES ovarian): 41.8 µM
- GI50 (NCI-H460 lung): 3.01 µM
- TGI (NCI-H460 lung): 11 µM
- GI50 (CAKI-1 renal): 3.03 µM
- TGI (CAKI-1 renal): 8.68 µM
- GI50 (COLO 205 colon): 2.35 µM
- TGI (COLO 205 colon): 5.59 µM
- GI50 (TK-10 renal): 4.55 µM
- TGI (TK-10 renal): 32.8 µM
- GI50 (SK-MEL-2 melanoma): 2.87 µM
- TGI (SK-MEL-2 melanoma): 6.9 µM
- GI50 (U251 CNS): 2.6 µM
- TGI (U251 CNS): 12.4 µM
- GI50 (MDA-MB-231 breast): 3.52 µM
- TGI (MDA-MB-231 breast): 26 µM
- GI50 (NCI-H522 lung): 2.54 µM
- TGI (NCI-H522 lung): 8.86 µM
- GI50 (SR leukemia): 4 µM
- TGI (SR leukemia): 31.9 µM
- GI50 (CCRF-CEM leukemia): 2.8 µM
- TGI (CCRF-CEM leukemia): > 100 µM
- GI50 (LOX IMVI melanoma): 3.56 µM
- TGI (LOX IMVI melanoma): 13.8 µM
- GI50 (SN12C renal): 3.92 µM
- TGI (SN12C renal): > 100 µM
- GI50 (MOLT-4 leukemia): 3.03 µM
- TGI (MOLT-4 leukemia): 25.2 µM
- GI50 (BT-549 breast): 3.18 µM
- TGI (BT-549 breast): 15.9 µM
- GI50 (SF-295 CNS): 2.07 µM
- TGI (SF-295 CNS): 7.09 µM
- GI50 (A498 renal): 3.01 µM
- TGI (A498 renal): 17 µM
- GI50 (NCI-H226 lung): 3.16 µM
- TGI (NCI-H226 lung): 54.4 µM
- GI50 (SNB-19 CNS): 4.93 µM
- TGI (SNB-19 CNS): > 100 µM
- GI50 (HOP-62 NSCLC): 7.14 µM
- TGI (HOP-62 NSCLC): 22.1 µM
- GI50 (EKVX NSCLC): 1.93 µM
- TGI (EKVX NSCLC): 21.7 µM
- GI50 (UACC-62 melanoma): 2.78 µM
- TGI (UACC-62 melanoma): 19.2 µM
- GI50 (UO-31 renal): 2.82 µM
- TGI (UO-31 renal): 26.5 µM
- GI50 (T-47D breast): 4.16 µM
- TGI (T-47D breast): 34.6 µM
- GI50 (HCT-15 colon): 3.69 µM
- TGI (HCT-15 colon): > 100 µM
- GI50 (OVCAR-8 ovarian): 3.15 µM
- TGI (OVCAR-8 ovarian): > 100 µM
- GI50 (KM12 colon): 3.67 µM
- TGI (KM12 colon): 14.4 µM
- GI50 (ACHN renal): 4.05 µM
- TGI (ACHN renal): > 100 µM
- GI50 (SF-268 CNS): 4.52 µM
- TGI (SF-268 CNS): 73.6 µM
- GI50 (K-562 leukemia): 2.91 µM
- TGI (K-562 leukemia): > 100 µM
- GI50 (MALME-3M melanoma): 3.49 µM
- TGI (MALME-3M melanoma): 15.8 µM
- GI50 (A549 NSCLC): 2.29 µM
- TGI (A549 NSCLC): 16.5 µM
- GI50 (DU-145 prostate): 5.49 µM
- TGI (DU-145 prostate): 72.5 µM
- GI50 (MCF7 breast): 3.02 µM
- TGI (MCF7 breast): 33.4 µM
- GI50 (OVCAR-3 ovarian): 3.04 µM
- TGI (OVCAR-3 ovarian): 9.42 µM
- GI50 (PC-3 prostate): 3.09 µM
- TGI (PC-3 prostate): > 100 µM
- GI50 (HT29 colon): 3.82 µM
- TGI (HT29 colon): 13 µM
- GI50 (UACC-257 melanoma): 3.06 µM
- TGI (UACC-257 melanoma): 18 µM
- GI50 (NCI-H23 lung): 3.43 µM
- TGI (NCI-H23 lung): 16.2 µM
- GI50 (OVCAR-5 ovarian): 6.38 µM
- TGI (OVCAR-5 ovarian): > 100 µM
